Laboratory results from PMC8448983 (European journal of medicinal chemistry, 2021).

Experiments:
[1] = target: T1, human A2B adenosine receptor (Homo sapiens, UniProt P29275); conditions: read-out: Ki, A2B AR; USEF; HEK-A2B membranes; 25 nM [3H]-DPCPX
T1 sequence (P29275 1-332): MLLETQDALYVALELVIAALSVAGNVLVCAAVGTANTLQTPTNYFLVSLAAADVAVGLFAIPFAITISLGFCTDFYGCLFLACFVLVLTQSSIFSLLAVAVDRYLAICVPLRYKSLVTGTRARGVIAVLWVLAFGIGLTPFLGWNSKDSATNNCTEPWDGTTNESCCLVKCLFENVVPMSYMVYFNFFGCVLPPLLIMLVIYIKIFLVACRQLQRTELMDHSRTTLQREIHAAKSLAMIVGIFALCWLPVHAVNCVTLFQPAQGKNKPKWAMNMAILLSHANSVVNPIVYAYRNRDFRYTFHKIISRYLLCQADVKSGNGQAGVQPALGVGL

[2] = target: T2, human A3 adenosine receptor (Homo sapiens, UniProt P0DMS8); conditions: read-out: Ki, A3 AR; USEF; HeLa-A3 membranes; 10 nM [3H]-NECA
T2 sequence (P0DMS8 1-318): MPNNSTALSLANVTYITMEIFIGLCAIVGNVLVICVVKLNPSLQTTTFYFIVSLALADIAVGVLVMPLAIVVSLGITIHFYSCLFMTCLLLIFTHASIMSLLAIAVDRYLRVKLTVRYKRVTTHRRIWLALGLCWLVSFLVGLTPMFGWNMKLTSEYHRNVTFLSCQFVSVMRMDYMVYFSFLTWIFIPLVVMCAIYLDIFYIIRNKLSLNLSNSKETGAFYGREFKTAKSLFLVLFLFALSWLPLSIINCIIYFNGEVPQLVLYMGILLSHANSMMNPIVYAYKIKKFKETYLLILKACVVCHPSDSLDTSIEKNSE

[3] = test system: human blood platelets; experiment: Formation of thrombus on collagen in flow conditions; assay type: cell-based; conditions: whole blood perfused over collagen; 50 μM compound; n = 9
[4] = test system: human blood platelets; experiment: Aggregation of blood platelets in whole blood; conditions: for effect on ADP-induced platelet aggregation in whole blood: ADP, 10, 30, 50 μM compound, n = 13; for effect on arachidonic acid-induced platelet aggregation in whole blood: data not shown; for effect on collagen-induced platelet aggregation in whole blood: collagen 1 μg/mL
[5] = test system: human blood platelets; experiment: ADP-induced platelet aggregation in platelet-rich plasma; assay type: cell-based; conditions: 10 μM ADP, mean ± SD, n = 6–9
[6] = target: T3, human A2A adenosine receptor (Homo sapiens, UniProt P29274); experiment: biochemical
T3 sequence (P29274 whole entry): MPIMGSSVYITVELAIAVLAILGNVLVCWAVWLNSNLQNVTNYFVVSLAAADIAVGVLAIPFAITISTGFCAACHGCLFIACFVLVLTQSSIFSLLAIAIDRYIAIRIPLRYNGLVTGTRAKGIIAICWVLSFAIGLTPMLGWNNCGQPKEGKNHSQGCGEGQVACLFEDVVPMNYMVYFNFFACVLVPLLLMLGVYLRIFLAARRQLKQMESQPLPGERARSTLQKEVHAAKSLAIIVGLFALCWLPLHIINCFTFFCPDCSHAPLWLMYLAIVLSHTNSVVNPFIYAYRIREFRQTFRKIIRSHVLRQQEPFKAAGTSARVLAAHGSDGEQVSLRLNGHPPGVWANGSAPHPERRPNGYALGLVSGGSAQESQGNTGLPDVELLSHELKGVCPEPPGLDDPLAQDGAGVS

[7] = target: T3, human A2A adenosine receptor; conditions: 50 μM compound; Fig. 1
[8] = target: T4, human A1 adenosine receptor (Homo sapiens, UniProt P30542); experiment: biochemical
T4 sequence (P30542 1-326): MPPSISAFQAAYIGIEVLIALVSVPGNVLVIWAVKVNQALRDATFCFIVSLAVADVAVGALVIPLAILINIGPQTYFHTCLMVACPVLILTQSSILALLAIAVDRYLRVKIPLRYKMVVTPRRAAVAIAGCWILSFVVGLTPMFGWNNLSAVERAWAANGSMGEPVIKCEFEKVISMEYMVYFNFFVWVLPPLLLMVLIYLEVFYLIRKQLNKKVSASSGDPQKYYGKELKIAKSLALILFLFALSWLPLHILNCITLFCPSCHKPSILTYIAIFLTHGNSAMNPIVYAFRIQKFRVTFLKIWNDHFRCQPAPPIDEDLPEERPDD

[9] = target: A3 receptor; conditions: read-out: experimental Ki, A3 AR; ref PubChem CID 9958472; cited from earlier work

## 5′-ethylcarbamoyl-N^6-(3-phenylpropyl)adenosine [Compound 18]
[1]
  Ki: 1380 nM
[2]
  Ki: 4.5 nM
[3]
  effect on thrombus formation on collagen under flow: did not exert an inhibitory effect
[4]
  effect on ADP-induced platelet aggregation in whole blood: significantly inhibited
  effect on arachidonic acid-induced platelet aggregation in whole blood: no effect
  effect on collagen-induced platelet aggregation in whole blood: significantly inhibited
[5]; 10 μM compound
  area under the aggregation curve, ADP-induced platelet aggregation: 630.0 ± 80.3 arbitrary units
[5]; 50 μM compound
  area under the aggregation curve, ADP-induced platelet aggregation: 336.8 ± 108.5 arbitrary units

## OC[C@H]1O[C@@H](n2cnc3c(NCCCc4ccccc4)nc(Cl)nc32)[C@H](O)[C@@H]1O [Compound 24, 6-N-(3-phenylpropyl)-2-chloroadenosine]
[6]
  IC50: 22000 ± 4400 nM
[7]
  radioligand displacement at A2A receptor: at least 50%
[8]
  Ki: 3340 nM

## OC[C@H]1O[C@@H](n2cnc3c(NCCCc4ccccc4)ncnc32)[C@H](O)[C@@H]1O [Compound 40, N^6-(3-phenylpropyl)adenosine]
[7]
  radioligand displacement at A2A receptor: at least 50%
[3]
  effect on thrombus formation on collagen under flow: smaller than the thrombi in the untreated samples
[4]
  effect on ADP-induced platelet aggregation in whole blood: significantly decreased
  effect on arachidonic acid-induced platelet aggregation in whole blood: did not inhibit
  effect on collagen-induced platelet aggregation in whole blood: did not inhibit

## CNC(=O)[C@H]1O[C@@H](n2cnc3c(NCc4ccc(N)c(I)c4)ncnc32)[C@H](O)[C@@H]1O [I-AB-MECA]
[9]
  Ki: 1.2 to 2.1 nM
